# Tests used:
# Type in all cases: in vivo, mouse
# [1] = tested on: IFN-γ; assay: Serum IFN-γ in OVA/OVA323-339 stimulated DO11.10 mice (ELISA); conditions: for IFN-γ level in pg/ml serum on day 0 after 0 hours: 0 hours (before injection); for increase of INF-γ serum concentration: 90 μg per mouse
# Method: (§1) Groups of six, 8-10 weeks old, male or female DO11.10 mice weighing between 20-22 g are obtained as described in Murphy K. M. et al. 1990, Science 250:1720-1722. The animals are maintained in Microvent positive air supply cages (22±1° C., 55±5% relative humidity, 50-70 changes of fresh air/hour and 12 hours day and night cycle) with sawdust bedding. Standard laboratory mouse chow (SNIFF, Soest, Germany) and drinking water is given ad libidum. The animals are used for the study after an adaptation period of 10-14 days and grouped (6 per group) in type II Macrolon cages one day before the experiment.
# (§2) Groups of six DO11.10 mice are i.p. injected with 10 μg of ovalbumin (OVA, Sigma, St. Louis, USA) absorbed to 2 mg of Al(OH)3 (Alu Gel S; 2% Al(OH)3, Serva, Heidelberg, FRG) and diluted with saline to a volume of 0.2 ml or various amounts (1, 3, 10, 30, or 90 μg per mouse) of alum-precipitated OVA323-339 peptide (98% purity, piChem R&D, Graz Austria) in 0.2 ml on days 0 and 14. Before and at different time points on days 0 and 14 after the OVA or OVA323-339 peptide administration about 200 μl of blood are collected by puncture of the retro-orbital plexus under ether anesthesia.
# (§3) The sera are collected and stored frozen at −20° C. until analyzed. […]
# Murine IL-2, IFN-γ and IL-4 are analyzed by immunoassays (Quantikine R&D Systems, Minneapolis, Minn., USA). Results are expressed as pg per ml serum expressed as mean±SEM pg of the cytokine indicated per ml serum. Test and control groups are evaluated by Dunn test by Kruskall-Wallis One Way Anova using the SigmaStat® program. […]
# Mice of the control group are injected with alum. Blood is collected before and at 2, 4, and 6 hours after the first peptide injection. INF-γ is determined in the sera by an ELISA. Results are expressed as mean pg per ml serum±SEM. […]
# [2] = tested on: IL-4; assay: Serum IL-4 in OVA323-339 stimulated DO11.10 mice (ELISA); conditions: for IL-4 level in pg/ml serum on day 0 after 0 hours: 0 hours (before injection)
# Method: as §1, §2, §3
# Murine IL-2, IFN-γ and IL-4 are analyzed by immunoassays (Quantikine R&D Systems, Minneapolis, Minn., USA). Results are expressed as pg per ml serum expressed as mean±SEM pg of the cytokine indicated per ml serum. Test and control groups are evaluated by Dunn test by Kruskall-Wallis One Way Anova using the SigmaStat® program.
# Serum IL-4 levels after primary and secondary OVA323-339 peptide antigen stimulation are shown in TABLE 3: Groups of 6 mice receive various doses (1, 3, 10, 30 and 90 μg/mouse) of alum-precipitated OVA323-339 peptide i.p. on day 0 and 14. Animals of the control group are injected with alum. Blood is collected before and at 2, 4, and 6 hours after the first (A) and after the second peptide injection (B). IL-4 is determined in the sera by an ELISA. Results are expressed as mean pg per ml serum±SEM. […]
# [3] = tested on: IL-1β; assay: Serum IL-1β in DO11.10 mice primed with OVA-peptide and challenged with LPS
# Method: Animals are provided as described in Example 2a).
# b) Administration of OVA323-339 (=OVA-peptide) and LPS Groups of six DO11.10 mice receive i.p. 30 μg of OVA323-339 peptide (98% purity, pi Chem R&D, Graz Austria) in 0.2 ml 0.9% saline per mouse. Control mice are injected i.p. with the same amount of saline.
# 18 hours later the mice are challenged i.p. with 100, 300 or 500 μg LPS (E. coli 0111: B4 Sigma Vienna, Austria). At 2, 4 and 6 hours after the LPS administration about 200 μl of blood are collected by puncture of the retro-orbital plexus under ether anesthesia. The sera are collected and stored frozen at −20° until analyzed.
# Murine IL-1α, IL-1β and TNF-α serum levels are determined by ELISAs (IL-1α and TNF-α, Bender MedSystems, Vienna Austria; IL-1β, Quantikine R&D Systems, Minneapolis, Minn.). Results are expressed as pg per ml serum. Differences in the serum cytokines concentrations between the different experimental groups are examined for statistical significance by the Mann-Whitney U test, two tailed. Results are expressed as the mean±SEM. p<0.05 is regarded as significant.
# Values of serum IL-1β responses in control DO11.10 mice challenged with various doses of LPS (=NaCl+LPS) and in mice primed with the OVA-peptide 18 hours prior to the LPS challenge (=OVA+LPS) are given in TABLE 7. The serum IL-1β levels are expressed as mean pg per ml serum±SEM.
substance,measurement,setting,value
"OVA323-339: peptide derived from chicken ovalbumin containing amino acids from position 323 to 339 (KISQAVHAAHAEINEAG; UniProt P01012 323-339, looked up, fragment)",IFN-γ level in pg/ml serum on day 0 after 0 hours,[1]; 1 μg OVA323-339 i.p.,11.181 ± 1.288 pg/mL
same,IFN-γ level in pg/ml serum on day 0 after 2 hours,[1]; 1 μg OVA323-339 i.p.,18.047 ± 3.944 pg/mL
same,IFN-γ level in pg/ml serum on day 0 after 4 hours,[1]; 1 μg OVA323-339 i.p.,41.034 ± 12.394 pg/mL
same,IFN-γ level in pg/ml serum on day 0 after 6 hours,[1]; 1 μg OVA323-339 i.p.,15.925 ± 4.594 pg/mL
same,IFN-γ level in pg/ml serum on day 0 after 0 hours,[1]; 3 μg OVA323-339 i.p.,8.230 ± 1.430 pg/mL
same,IFN-γ level in pg/ml serum on day 0 after 2 hours,[1]; 3 μg OVA323-339 i.p.,62.724 ± 7.939 pg/mL
same,IFN-γ level in pg/ml serum on day 0 after 4 hours,[1]; 3 μg OVA323-339 i.p.,63.023 ± 12.462 pg/mL
same,IFN-γ level in pg/ml serum on day 0 after 6 hours,[1]; 3 μg OVA323-339 i.p.,25.962 ± 8.858 pg/mL
same,increase of serum INF-γ levels compared to alum control,"[1]; 3 μg, at 2 and 4 hours",about 11 fold
same,IFN-γ level in pg/ml serum on day 0 after 0 hours,[1]; 10 μg OVA323-339 i.p.,0.374 ± 0.324 pg/mL
same,IFN-γ level in pg/ml serum on day 0 after 2 hours,[1]; 10 μg OVA323-339 i.p.,65.927 ± 23.147 pg/mL
same,IFN-γ level in pg/ml serum on day 0 after 4 hours,[1]; 10 μg OVA323-339 i.p.,202.260 ± 48.410 pg/mL
same,IFN-γ level in pg/ml serum on day 0 after 6 hours,[1]; 10 μg OVA323-339 i.p.,24.047 ± 9.455 pg/mL
same,rise in INF-γ serum levels compared to alum alone,[1]; 10 μg OVA323-339 peptide 2 weeks after 10 μg OVA,~25 fold
same,IFN-γ level in pg/ml serum on day 0 after 0 hours,[1]; 30 μg OVA323-339 i.p.,3.988 ± 0.700 pg/mL
same,IFN-γ level in pg/ml serum on day 0 after 2 hours,[1]; 30 μg OVA323-339 i.p.,207.727 ± 62.093 pg/mL
same,IFN-γ level in pg/ml serum on day 0 after 4 hours,[1]; 30 μg OVA323-339 i.p.,176.807 ± 79.268 pg/mL
same,IFN-γ level in pg/ml serum on day 0 after 6 hours,[1]; 30 μg OVA323-339 i.p.,187.325 ± 62.370 pg/mL
same,increase of serum IFN-γ levels,"[1]; 30 μg per mouse, at 2, 4 and 6 hours",32-38 fold
same,IFN-γ level in pg/ml serum on day 0 after 2 hours,[1]; 90 μg OVA323-339 i.p.,407.899 ± 106.513 pg/mL
same,IFN-γ level in pg/ml serum on day 0 after 4 hours,[1]; 90 μg OVA323-339 i.p.,413.925 ± 65.247 pg/mL
same,IFN-γ level in pg/ml serum on day 0 after 6 hours,[1]; 90 μg OVA323-339 i.p.,514.918 ± 72.758 pg/mL
same,increase of INF-γ serum concentration,[1]; at 2 and 4 hours,75 fold
same,increase of INF-γ serum concentration,[1]; at 6 hours,94 fold
same,increase of serum IFN-γ levels,"[1]; 10 g (printed) of peptide, at 4 hours",about 40 fold
same,increase in IFN-γ levels in sera,"[1]; first injection of 10 μg peptide, 3 hours after",50 fold
same,change in serum INF-γ levels,"[1]; primary stimulation, 1 μg per mouse, only at 4 hours",small increase
same,rise of INF-γ levels after second sensitization,"[1]; second sensitization, same dose (10 μg) of peptide",same magnitude
same,IL-4 level in pg/ml serum on day 0 after 0 hours,[2]; 1 μg OVA323-339 i.p.,25.770 ± 2.618 pg/mL
same,IL-4 level in pg/ml serum on day 0 after 2 hours,[2]; 1 μg OVA323-339 i.p.,36.426 ± 5.871 pg/mL
same,IL-4 level in pg/ml serum on day 0 after 4 hours,[2]; 1 μg OVA323-339 i.p.,4.094 ± 1.072 pg/mL
same,IL-4 level in pg/ml serum on day 0 after 6 hours,[2]; 1 μg OVA323-339 i.p.,13.354 ± 4.010 pg/mL
same,change of IL-4 levels,"[2]; 1 μg of peptide, first injection",remain unchanged
same,IL-4 level in pg/ml serum on day 0 after 0 hours,[2]; 3 μg OVA323-339 i.p.,17.905 ± 3.616 pg/mL
same,IL-4 level in pg/ml serum on day 0 after 2 hours,[2]; 3 μg OVA323-339 i.p.,37.706 ± 4.028 pg/mL
same,IL-4 level in pg/ml serum on day 0 after 4 hours,[2]; 3 μg OVA323-339 i.p.,7.903 ± 0.957 pg/mL
same,IL-4 level in pg/ml serum on day 0 after 6 hours,[2]; 3 μg OVA323-339 i.p.,11.051 ± 2.549 pg/mL
same,increase of serum IL-4 levels compared to alum control,"[2]; 3 μg of peptide, after 2 hours",only slightly
same,IL-4 level in pg/ml serum on day 0 after 0 hours,[2]; 10 μg OVA323-339 i.p.,16.296 ± 3.397 pg/mL
same,IL-4 level in pg/ml serum on day 0 after 2 hours,[2]; 10 μg OVA323-339 i.p.,41.870 ± 9.751 pg/mL
same,IL-4 level in pg/ml serum on day 0 after 4 hours,[2]; 10 μg OVA323-339 i.p.,18.804 ± 1.757 pg/mL
same,IL-4 level in pg/ml serum on day 0 after 6 hours,[2]; 10 μg OVA323-339 i.p.,5.735 ± 2.226 pg/mL
same,increase of serum IL-4 levels compared to alum control,"[2]; 10 μg of peptide, after 2 hours",only slightly
same,IL-4 level in pg/ml serum on day 0 after 0 hours,[2]; 30 μg OVA323-339 i.p.,16.524 ± 2.209 pg/mL
same,IL-4 level in pg/ml serum on day 0 after 2 hours,[2]; 30 μg OVA323-339 i.p.,93.594 ± 29.015 pg/mL
same,IL-4 level in pg/ml serum on day 0 after 4 hours,[2]; 30 μg OVA323-339 i.p.,41.725 ± 10.226 pg/mL
same,IL-4 level in pg/ml serum on day 0 after 6 hours,[2]; 30 μg OVA323-339 i.p.,17.173 ± 2.069 pg/mL
same,rise of serum IL-4 levels,"[2]; 30 μg of peptide, at 2 hours",3 fold
same,IL-4 level in pg/ml serum on day 0 after 2 hours,[2]; 90 μg OVA323-339 i.p.,273.017 ± 95.997 pg/mL
same,IL-4 level in pg/ml serum on day 0 after 4 hours,[2]; 90 μg OVA323-339 i.p.,146.940 ± 21.784 pg/mL
same,IL-4 level in pg/ml serum on day 0 after 6 hours,[2]; 90 μg OVA323-339 i.p.,127.616 ± 7.397 pg/mL
same,rise of serum IL-4 levels,"[2]; 90 μg peptide, after 4 and 6 hours",7-8 fold
same,increase of serum IL-4 levels,"[2]; 90 μg peptide, after 2 hours",14 fold
same,rise in the IL-4 levels after the second antigen stimulation,[2]; second antigen stimulation (day 14),up to several 100 fold
same,change of IL-4 levels compared to the control,[2]; second injection of 1 μg of peptide 2 weeks later,does not change
same,IL-1β in OVA-peptide primed versus unprimed mice,"[3]; 100 μg LPS, 2 hours",1.6 fold
same,IL-1β in OVA-peptide primed versus unprimed mice,"[3]; 100 μg LPS, 4 hours",1.7 fold
same,IL-1β in OVA-peptide primed versus unprimed mice,"[3]; 100 μg LPS, 6 hours",7.8 fold
same,IL-1β in OVA-peptide primed versus unprimed mice,"[3]; 300 μg LPS, 2 hours",1.9 fold
same,IL-1β in OVA-peptide primed versus unprimed mice,"[3]; 300 μg LPS, 4 hours",2.7 fold
same,IL-1β in OVA-peptide primed versus unprimed mice,"[3]; 300 μg LPS, 6 hours",3.0 fold
same,IL-1β in OVA-peptide primed versus unprimed mice,"[3]; 500 μg LPS, 2 hours",3.5 fold
same,IL-1β in OVA-peptide primed versus unprimed mice,"[3]; 500 μg LPS, 4 hours",2.2 fold
same,IL-1β in OVA-peptide primed versus unprimed mice,"[3]; 500 μg LPS, 6 hours",5.7 fold

# Reference: patent publication US20060095978A1, “Screening assay” (priority 2002, published 2006)
